Results on 11 compounds are retold here after PMC7696185, “Synthesis of New 1, 3, 4-Oxadiazole-Incorporated 1, 2, 3-Triazole Moieties as Potential Anticancer Agents Targeting Thymidylate Synthase and Their Docking Studies” (Pharmaceuticals, 2020).

One series has as its system MCF-7 cells. As to the kind of experiment: MTT cytotoxicity assay, MCF-7. Conditions: for IC50: Homo sapiens, MCF7, breast cancer MCF-7, MTT, 72 h. The series is classed as cell-based, human. The protocol:
(§1) These compounds were tested against breast MCF-7 and colorectal HCT-116 cell lines.
The human breast cancer cell line (MCF-7) used in the present study was obtained from Dr. Neamatallah’s lab. The cells were cultured in Dulbecco’s Modified Eagle Medium (DMEM) supplemented with 10% (v/v) fetal bovine serum (FBS), 10,000 units/mL penicillin/streptomycin, and 1% (v/v) L-glutamine at 37 °C in humidified 5% CO2 incubator.
(§2) The cytotoxicity activity was done by MTT assay. Breast MCF-7 and colorectal HCT-116 cancer cells were added at 1 × 10^5 cells/mL into a 96-well plate with three replicates, and incubated overnight for attachment at 37 °C in a 5% CO2 humidified atmosphere. Drug concentrations at six serial dilutions (100.0, 50.0, 10.0, 1.0, 0.5, and 0.1 μM) were added in triplicate and incubated at 37 °C and 5% CO2 for 72 h. Drugs were dissolved in 0.1% DMSO as a vehicle. Untreated cells were used as control. […] Thereafter, each well for each time point was removed and replaced with […] of full medium containing 10% 3-(4,5- dimethylthiaxolyl-2)-2,5-diphenyltetrazoliumbromide (MTT) (10 mg/mL). Then the media was removed and 100 µl of DMSO was added, and cells were incubated for a further 5 mins at 37 °C and 5% CO2. Plates were quantified using the SpectraMax M3 plate reader at 570 nm. The percentage inhibition was calculated as 100 − ((mean OD of treated cell × 100)/Mean OD of vehicle treated cells (DMSO)). All the experiments were repeated in at least three independent experiments (Table 2, Figure 3, Figure 4, Figure 5 and Figure 6).
For orientation: Tetrazolium dyes change colour on reduction, which living cells bring about.

A further series has as its system HCT-116 cells. Description: MTT cytotoxicity assay, HCT-116. The series is classed as cell-based, human. The note with it: for IC50: colorectal cancer HCT-116, MTT, 72 h; for fold activity compared to 5-fluorouracil, HCT-116 / fold activity compared to tamoxifen, HCT-116: ratio of IC50, HCT-116. The protocol: as §1, §2
In another series the test system is HEK 293 cells. Description: MTT assay on non-tumorigenic cell line HEK 293. The format is cell-based. Conditions: HEK293, normal human embryonic kidney cells.
Series [1] addresses thymidylate synthase (TS) (Homo sapiens, UniProt P04818). As to the kind of experiment: In vitro thymidylate synthase enzyme assay. The series is classed as biochemical. Conditions: for fold activity compared to pemetrexed, TS: ratio of IC50, TS enzyme. The method, then: The inhibition of this enzyme plays a vital role in chemotherapy treatment. […] This inactivation of dTMP results in a reduction of deoxythymidine triphosphate (dTTP), leading to the disruption of DNA synthesis and cessation of cell growth and proliferation (Figure 7).
A thymidylate synthase enzymatic assay was carried out according to the reported method. It involves a mixture containing 2-mercaptoethanol (0.1 M), (6R,S)-tetrahydrofolate (0.0003 M), formaldehyde (0.012 M), MgCl2 (0.02 M), dUMP (0.001 M), TrisHCl (0.04 M), and NaEDTA (0.00075 M).This assay was done spectrophotometrically at 30° C and pH 7.4. The reaction was initiated by the addition of an amount of enzyme, giving a change in absorbance at 340 nm of 0.016/min in the absence of inhibitor. The percent inhibition was determined at a minimum of four inhibitor concentrations within 20% of the 50% point.

The mark [2] stands for this setting: spectrophotometric, 340 nm, 30 °C, pH 7.4, read-out: IC50 thymidylate synthase.

Read-outs that look alike come from different tables or passages of the source.

Chain of thymidylate synthase (TS) (P04818 whole entry): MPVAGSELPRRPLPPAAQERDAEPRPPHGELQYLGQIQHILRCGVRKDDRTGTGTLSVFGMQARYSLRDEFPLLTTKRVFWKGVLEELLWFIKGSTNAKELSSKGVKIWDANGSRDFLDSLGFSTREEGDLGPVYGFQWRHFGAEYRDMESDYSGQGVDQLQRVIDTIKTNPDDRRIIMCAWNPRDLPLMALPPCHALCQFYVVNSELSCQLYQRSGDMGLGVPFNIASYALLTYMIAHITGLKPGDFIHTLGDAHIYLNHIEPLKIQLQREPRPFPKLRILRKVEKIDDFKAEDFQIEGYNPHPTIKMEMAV

On to `O=c1[nH]cc(F)c(=O)[nH]1` [Compound 5-FU, 5-fluorouracil, reference compound], for which the IC50 in the series with MCF-7 cells worked out at 24.7 µM; with HCT-116 cells (Homo sapiens, HCT-116, 72 h), 32.7 µM.

Turning to `Cc1ccc(-n2cc(CSc3nnc(-c4ccccc4)o3)nn2)cc1` [Compound 6, 4-((5-phenyl–1,3,4-oxadiazol–2-ylthio)methyl)-1-p-tolyl–1H-1,2,3-triazole], the IC50 in the series with MCF-7 cells worked out at 79.8 µM; in the series on HCT-116 cells (Homo sapiens, HCT-116, 72 h), 89.2 µM.

`Cc1ccccc1-n1cc(CSc2nnc(-c3ccccc3)o2)nn1` [Compound 7, 4-((5-phenyl–1,3,4-oxadiazol-2-ylthio)methyl)–1-o-tolyl-1H–1,2,3-triazole]: the IC50 with MCF-7 cells was determined as 30.7 µM; in the series on HCT-116 cells (Homo sapiens, HCT-116, 72 h), 34.3 µM.

As to `Clc1ccccc1-n1cc(CSc2nnc(-c3ccccc3)o2)nn1` [Compound 8, 4-((5-phenyl–1,3,4-oxadiazol–2-ylthio)methyl)–1-(2-chlorophenyl)-1H–1,2,3-triazole], the melting point was in the range of 111 to 112 °C. Besides, the IC50 in the series with MCF-7 cells turned out to be 73.3 µM. Also, the IC50 in the series with HCT-116 cells (Homo sapiens, HCT-116, 72 h) was above 100 µM. In the series on HCT-116 cells, the IC50 amounted to 108 µM.

Consider `Clc1ccc(-n2cc(CSc3nnc(-c4ccccc4)o3)nn2)cc1` [Compound 9, 4-((5-phenyl–1,3,4-oxadiazol-2-ylthio)methyl)–1-(4-chlorophenyl)-1H–1,2,3-triazole], for which the melting point was in the range of 200 to 202 °C. Also, in the series with MCF-7 cells, the IC50 is 34.4 µM. This compound also showed an IC50 with HCT-116 cells (Homo sapiens, HCT-116, 72 h) of 36.7 µM.

`Brc1cccc(-n2cc(CSc3nnc(-c4ccccc4)o3)nn2)c1` [Compound 10, 4-((5-phenyl–1,3,4-oxadiazol–2-ylthio)methyl)-1-(3-bromophenyl)-1H–1,2,3-triazole] came in with a melting point of 146 to 148 °C. This compound also returned an IC50 with MCF-7 cells of 25.9 µM. For the same compound, half-maximal inhibition in the series with HCT-116 cells (Homo sapiens, HCT-116, 72 h) (IC50) required 32.7 µM.

For `O=[N+]([O-])c1ccc(-n2cc(CSc3nnc(-c4ccccc4)o3)nn2)cc1` [Compound 11, 4-((5-phenyl–1,3,4-oxadiazol–2-ylthio)methyl)–1-(4-nitrophenyl)-1H–1,2,3-triazole], the melting point lay within 202 to 204 °C. This compound showed an IC50 in the series on MCF-7 cells of 98.2 µM. Also, in the series on HCT-116 cells (Homo sapiens, HCT-116, 72 h), the IC50 was above 100 µM. In the series on HCT-116 cells, this compound displayed an IC50 of 102 µM.

As to `c1ccc(-c2nnc(SCc3cn(-c4ccccc4)nn3)o2)cc1` [Compound 12, 4-((5-phenyl–1,3,4-oxadiazol–2-ylthio)methyl)-1-phenyl-1H–1,2,3-triazole], the IC50 in the series on MCF-7 cells is 5.8 µM; in the series with HCT-116 cells (Homo sapiens, HCT-116, 72 h), 14.8 µM; in the series on HEK 293 cells, above 50 µM; in series [1] (setting [2]), 2.52 µM. The “fold activity compared to 5-fluorouracil, MCF-7” value in the series with MCF-7 cells (ratio of IC50, MCF-7) was “four-fold”. Moreover, the “fold activity compared to 5-fluorouracil, HCT-116” value with HCT-116 cells was found to be 2.2 fold. For the same compound, the “fold activity compared to tamoxifen, HCT-116” value in the series on HCT-116 cells stood at 1.7 fold. In addition, in series [1], the “fold activity compared to pemetrexed, TS” value was 2.6 fold.

`COC(=O)c1ccccc1-n1cc(CSc2nnc(-c3ccccc3)o2)nn1` [Compound 13, Methyl 2-(4-((5-phenyl–1,3,4-oxadiazol-2-ylthio)methyl)-1H–1,2,3-triazol–1-yl)benzoate] showed a melting point of 119 to 120 °C. Further, half-maximal inhibition with MCF-7 cells (IC50) was put at 1.26 µM. Further, in the series on MCF-7 cells (ratio of IC50, MCF-7), the “fold activity compared to tamoxifen, MCF-7” value was “five times”. Moreover, in the series on HCT-116 cells (Homo sapiens, HCT-116, 72 h), half-maximal inhibition (IC50) required 17.3 µM. In the series on HCT-116 cells, the “fold activity compared to 5-fluorouracil, HCT-116” value stood at 1.9 fold and the “fold activity compared to tamoxifen, HCT-116” value is recorded as 1.5 fold. The IC50 in the series on HEK 293 cells is above 50 µM. The “fold activity compared to pemetrexed, TS” value in series [1] stood at 1.5 fold. Further, the IC50 in series [1] (setting [2]) was determined as 4.38 µM.

Compound `O=C(O)c1ccccc1-n1cc(CSc2nnc(-c3ccccc3)o2)nn1` [Compound 14, 2-(4-((5-phenyl–1,3,4-oxadiazol–2-ylthio)methyl)-1H–1,2,3-triazol–1-yl)benzoic acid] came in with a melting point of 119 to 120 °C. For the same compound, the midpoint of inhibition in the series with MCF-7 cells, the IC50, lay at 40.6 µM. The same compound came in with an IC50 with HCT-116 cells (Homo sapiens, HCT-116, 72 h) of 46.8 µM.

`Nc1nc2[nH]cc(CCc3ccc(C(=O)N[C@@H](CCC(=O)O)C(=O)O)cc3)c2c(=O)[nH]1` [PTX, pemetrexed, reference compound] returned an IC50 in series [1] of 6.75 µM.

The IC50 is the concentration that gives 50% inhibition. In general, melting point refers to the temperature, or range, at which the solid turns liquid.
